The target of this experiment is PD-1/PD-L1 (Homo sapiens (Human), UniProt Q9NZQ7). Description: PD-1/PD-L1 Homogeneous Time-Resolved Fluorescence (HTRF) Binding Assay. Particulars: recombinant human PD-1 (3 nM) and PD-L1 (10 nM), 25° C., PBS pH 7.4. The procedure:
Example A. PD-1/PD-L1 Homogeneous Time-Resolved Fluorescence (HTRF) Binding Assay
The assays were conducted in a standard black 384-well polystyrene plate with a final volume of 20 μL. Inhibitors were first serially diluted in DMSO and then added to the plate wells before the addition of other reaction components. The final concentration of DMSO in the assay was 1%. The assays were carried out at 25° C. in the PBS buffer (pH 7.4) with 0.05% Tween-20 and 0.1% BSA. Recombinant human PD-L1 protein (19-238) with a His-tag at the C-terminus was purchased from AcroBiosystems (PD1-H5229). Recombinant human PD-1 protein (25-167) with Fc tag at the C-terminus was also purchased from AcroBiosystems (PD1-H5257). PD-L1 and PD-1 proteins were diluted in the assay buffer and 10 μL was added to the plate well. Plates were centrifuged and proteins were preincubated with inhibitors for 40 minutes. The incubation was followed by the addition of 10 μL of HTRF detection buffer supplemented with Europium cryptate-labeled anti-human IgG (PerkinElmer-AD0212) specific for Fc and anti-His antibody conjugated to SureLight®-Allophycocyanin (APC, PerkinElmer-AD0059H). After centrifugation, the plate was incubated at 25° C. for 60 min. before reading on a PHERAstar FS plate reader (665 nm/620 nm ratio). Final concentrations in the assay were—3 nM PD1, 10 nM PD-L1, 1 nM europium anti-human IgG and 20 nM anti-His-Allophycocyanin. IC50 determination was performed by fitting the curve of percent control activity versus the log of the inhibitor concentration using the GraphPad Prism 5.0 software.

Sequence of PD-1/PD-L1 (Q9NZQ7 19-238): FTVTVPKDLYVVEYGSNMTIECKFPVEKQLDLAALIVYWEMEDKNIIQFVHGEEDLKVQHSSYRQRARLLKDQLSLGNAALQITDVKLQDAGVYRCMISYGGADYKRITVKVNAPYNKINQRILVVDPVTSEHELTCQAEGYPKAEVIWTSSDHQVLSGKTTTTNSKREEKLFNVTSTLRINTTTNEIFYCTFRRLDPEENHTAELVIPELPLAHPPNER

Turning to `Cc1c(NC(=O)c2nc3c(n2C)CCN(C(C)C)C3)cccc1-c1cccc(-c2nc3cc(CN4CC[C@H](C(=O)O)C4)cc(C#N)c3o2)c1C` [Example 38, (S)-1-((7-cyano-2-(3′-(5-isopropyl-1-methyl-4,5,6,7-tetrahydro-1H-imidazo[4,5-c]pyridine-2-carboxamido)-2,2′-dimethylbiphenyl-3-yl)benzo[d]oxazol-5-yl)methyl)pyrrolidine-3-carboxylic acid], the IC50 was no more than 10 nM.
As for `Cc1c(NC(=O)c2nc3c(n2C)CCN(C2CC2)C3)cccc1-c1cccc(-c2nc3cc(CN4CC[C@H](C(=O)O)C4)cc(C#N)c3o2)c1C` [Example 39, (S)-1-((7-cyano-2-(3′-(5-cyclopropyl-1-methyl-4,5,6,7-tetrahydro-1H-imidazo[4,5-c]pyridine-2-carboxamido)-2,2′-dimethylbiphenyl-3-yl)benzo[d]oxazol-5-yl)methyl)pyrrolidine-3-carboxylic acid], the IC50 was no more than 10 nM.
Then `Cc1c(NC(=O)c2nc3c(n2C)CCN(C2CC(F)(F)C2)C3)cccc1-c1cccc(-c2nc3cc(CN4CC[C@H](C(=O)O)C4)cc(C#N)c3o2)c1C` [Example 40, (S)-1-((7-cyano-2-(3′-(5-(3,3-difluorocyclobutyl)-1-methyl-4,5,6,7-tetrahydro-1H-imidazo[4,5-c]pyridine-2-carboxamido)-2,2′-dimethylbiphenyl-3-yl)benzo[d]oxazol-5-yl)methyl)pyrrolidine-3-carboxylic acid], with 10 to 100 nM; and `Cc1c(NC(=O)c2nc3c(n2C)CCN(C[C@H](C)O)C3)cccc1-c1cccc(-c2nc3cc(CN4CC[C@H](C(=O)O)C4)cc(C#N)c3o2)c1C` [Example 41, (S)-1-((7-cyano-2-(3′-(5-((S)-2-hydroxypropyl)-1-methyl-4,5,6,7-tetrahydro-1H-imidazo[4,5-c]pyridine-2-carboxamido)-2,2′-dimethylbiphenyl-3-yl)benzo[d]oxazol-5-yl)methyl)pyrrolidine-3-carboxylic acid], with no more than 10 nM.
For the molecule `Cc1c(NC(=O)c2nc3c(n2C)CCN(C)C3)cccc1-c1cccc(-c2nc3cc(CN(C)CCC(=O)O)cc(Cl)c3o2)c1C` [Example 42, 3-(((7-chloro-2-(3′-(1,5-dimethyl-4,5,6,7-tetrahydro-1H-imidazo[4,5-c]pyridine-2-carboxamido)-2,2′-dimethylbiphenyl-3-yl)benzo[d]oxazol-5-yl)methyl)(methyl)amino) propanoic acid], the IC50 was no more than 10 nM.
Then `CNC1CCN(c2cccc(-c3cccc(-c4nc5cc(CN6CC[C@@H](C(=O)O)C6)cc(Cl)c5o4)c3C)c2Cl)CC1` [Example 43, (R)-1-((7-chloro-2-(2′-chloro-2-methyl-3′-(4-(methylamino)piperidin-1-yl)biphenyl-3-yl)benzo[d]oxazol-5-yl)methyl)pyrrolidine-3-carboxylic acid], with no more than 10 nM; and `Cc1c(-c2nc3cc(CN4CC[C@@H](C(=O)O)C4)cc(Cl)c3o2)cccc1-c1cccc(N2CCC(NC3CC3)CC2)c1Cl` [Example 44, (R)-1-((7-chloro-2-(2′-chloro-3′-(4-(cyclopropylamino)piperidin-1-yl)-2-methylbiphenyl-3-yl)benzo[d]oxazol-5-yl)methyl)pyrrolidine-3-carboxylic acid], with no more than 10 nM; and `Cc1c(-c2nc3cc(CN4CC[C@@H](C(=O)O)C4)cc(Cl)c3o2)cccc1-c1cccc(N2CCC(N[C@H]3C[C@@H](O)C3)CC2)c1Cl` [Example 45, (R)-1-((7-chloro-2-(2′-chloro-3′-(4-((1s,3s)-3-hydroxycyclobutylamino)piperidin-1-yl)-2-methylbiphenyl-3-yl)benzo[d]oxazol-5-yl)methyl)pyrrolidine-3-carboxylic acid], with no more than 10 nM.
Consider `Cc1c(-c2nc3cc(CN4CC[C@@H](C(=O)O)C4)cc(Cl)c3o2)cccc1-c1cccc(N2CCC(NCC3(CO)CCC3)CC2)c1Cl` [Example 46, (R)-1-((7-chloro-2-(2′-chloro-3′-(4-((1-(hydroxymethyl)cyclobutyl)methylamino)piperidin-1-yl)-2-methylbiphenyl-3-yl)benzo[d]oxazol-5-yl)methyl)pyrrolidine-3-carboxylic acid], for which the IC50 is no more than 10 nM.
For the molecule `Cc1c(-c2nc3cc(CN4CC[C@@H](C(=O)O)C4)cc(C#N)c3o2)cccc1-c1cccc(N2CCC(N[C@H]3C[C@@H](O)C3)CC2)c1Cl` [Example 47, (R)-1-((2-(2′-chloro-3′-(4-((1s,3s)-3-hydroxycyclobutylamino)piperidin-1-yl)-2-methylbiphenyl-3-yl)-7-cyanobenzo[d]oxazol-5-yl)methyl)pyrrolidine-3-carboxylic acid], the IC50 was no more than 10 nM.
Then `CCN(CCO)C1CCN(c2cccc(-c3cccc(-c4nc5cc(CN6CC[C@@H](C(=O)O)C6)cc(C#N)c5o4)c3C)c2Cl)CC1` [Example 48, (R)-1-((2-(2′-chloro-3′-(4-(ethyl(2-hydroxyethyl)amino)piperidin-1-yl)-2-methylbiphenyl-3-yl)-7-cyanobenzo[d]oxazol-5-yl)methyl)pyrrolidine-3-carboxylic acid], with no more than 10 nM.
For `CCN(C1CCN(c2cccc(-c3cccc(-c4nc5cc(CN6CC[C@@H](C(=O)O)C6)cc(C#N)c5o4)c3C)c2Cl)CC1)[C@H]1C[C@@H](O)C1` [Example 49, (R)-1-((2-(2′-chloro-3′-(4-(ethyl((1s,3s)-3-hydroxycyclobutyl)amino)piperidin-1-yl)-2-methylbiphenyl-3-yl)-7-cyanobenzo[d]oxazol-5-yl)methyl)pyrrolidine-3-carboxylic acid], the IC50 was no more than 10 nM.
`Cc1c(-c2nc3cc(CN4CC[C@H](C(=O)O)C4)cc(C#N)c3o2)cccc1-c1cccc(NC(=O)c2nc3c(n2C)CCN(C)C3)c1Cl` [Example 50, (S)-1-((2-(2′-chloro-3′-(1,5-dimethyl-4,5,6,7-tetrahydro-1H-imidazo[4,5-c]pyridine-2-carboxamido)-2-methylbiphenyl-3-yl)-7-cyanobenzo[d]oxazol-5-yl)methyl)pyrrolidine-3-carboxylic acid]: the concentration for half-maximal inhibition (IC50) is no more than 10 nM.
In the case of `Cc1c(-c2nc3cc(CN4CC[C@H](C(=O)O)C4)cc(C#N)c3o2)cccc1-c1cccc(NC(=O)c2nc3c(n2C)CCN(C)C3)c1F` [Example 51, (S)-1-((7-cyano-2-(3′-(1,5-dimethyl-4,5,6,7-tetrahydro-1H-imidazo[4,5-c]pyridine-2-carboxamido)-2′-fluoro-2-methylbiphenyl-3-yl)benzo[d]oxazol-5-yl)methyl)pyrrolidine-3-carboxylic acid], the IC50 is no more than 10 nM.
Turning to `Cc1c(-c2nc3cc(CN4CCCC[C@H]4C(=O)O)cc(C#N)c3o2)cccc1-c1cccc(NC(=O)c2nc3c(n2C)CCN(C)C3)c1Cl` [Example 52, (S)-1-((2-(2′-chloro-3′-(1,5-dimethyl-4,5,6,7-tetrahydro-1H-imidazo[4,5-c]pyridine-2-carboxamido)-2-methylbiphenyl-3-yl)-7-cyanobenzo[d]oxazol-5-yl)methyl)piperidine-2-carboxylic acid], the 50% inhibitory concentration (IC50) was no more than 10 nM.
Then `Cc1c(-c2nc3cc(CN4CC[C@@H](C(=O)O)C4)cc(C#N)c3o2)cccc1-c1cccc(NC(=O)c2nc3c(n2C)CCN(C)C3)c1Cl` [Example 53, (R)-1-((2-(2′-chloro-3′-(1,5-dimethyl-4,5,6,7-tetrahydro-1H-imidazo[4,5-c]pyridine-2-carboxamido)-2-methylbiphenyl-3-yl)-7-cyanobenzo[d]oxazol-5-yl)methyl)pyrrolidine-3-carboxylic acid], with no more than 10 nM; and `Cc1c(-c2nc3cc(CN4CC[C@H](C(=O)O)C4)cc(C#N)c3o2)cccc1-c1cccc(-n2cc3c(n2)CCN(C)C3)c1Cl` [Example 54, (S)-1-((2-(2′-chloro-2-methyl-3′-(5-methyl-4,5,6,7-tetrahydro-2H-pyrazolo[4,3-c]pyridin-2-yl)biphenyl-3-yl)-7-cyanobenzo[d]oxazol-5-yl)methyl)pyrrolidine-3-carboxylic acid], with no more than 10 nM.
As to `Cc1c(-c2nc3cc(CN4CC[C@@H](C(=O)O)C4)cc(C#N)c3o2)cccc1-c1cccc(-n2cc3c(n2)CN(C)C3)c1Cl` [Example 55, (R)-1-((2-(2′-chloro-2-methyl-3′-(5-methyl-5,6-dihydropyrrolo[3,4-c]pyrazol-2(4H)-yl)biphenyl-3-yl)-7-cyanobenzo[d]oxazol-5-yl)methyl)pyrrolidine-3-carboxylic acid], the concentration for half-maximal inhibition (IC50) was no more than 10 nM.
As for `Cc1c(-c2nc3cc(CN4CC[C@@H](C(=O)O)C4)cc(C#N)c3o2)cccc1-c1cccc(-n2cc3c(n2)CN(C(C)C)C3)c1Cl` [Example 56, (R)-1-((2-(2′-chloro-3′-(5-isopropyl-5,6-dihydropyrrolo[3,4-c]pyrazol-2(4H)-yl)-2-methylbiphenyl-3-yl)-7-cyanobenzo[d]oxazol-5-yl)methyl)pyrrolidine-3-carboxylic acid], the IC50 is no more than 10 nM.
In the case of `Cc1c(-c2nc3cc(CN4CC[C@@H](C(=O)O)C4)cc(C#N)c3o2)cccc1-c1cccc(-n2cc3c(n2)CN(C)CC3)c1Cl` [Example 57, (R)-1-((2-(2′-chloro-2-methyl-3′-(6-methyl-4,5,6,7-tetrahydro-2H-pyrazolo[3,4-c]pyridin-2-yl)biphenyl-3-yl)-7-cyanobenzo[d]oxazol-5-yl)methyl)pyrrolidine-3-carboxylic acid], the IC50 was no more than 10 nM.

As usually defined, the IC50 is the midpoint of a concentration-inhibition curve.

Values taken from patent US10308644B2, “Heterocyclic compounds as immunomodulators” (Incyte Corporation, priority 2016, dated 2019).
